According to BigSolDB 2.1:

COC(=O)[C@H](N)c1ccc(O)cc1
Conditions	solubility (mole fraction)
in ethanol, 283.15 K	0.00129
in ethanol, 288.13 K	0.00179
in ethanol, 293.15 K	0.0024
in ethanol, 298.17 K	0.00318
in ethanol, 303.15 K	0.00411
in ethanol, 308.2 K	0.00522
in ethanol, 313.15 K	0.00652
in ethanol, 318.1 K	0.008
in ethanol, 323.15 K	0.00968
in ethyl acetate, 283.15 K	0.000154
in ethyl acetate, 288.17 K	0.00029
in ethyl acetate, 293.15 K	0.000479
in ethyl acetate, 298.15 K	0.000761
in ethyl acetate, 303.16 K	0.00113
in ethyl acetate, 308.15 K	0.00158
in ethyl acetate, 313.15 K	0.00209
in ethyl acetate, 318.18 K	0.00261
in ethyl acetate, 323.15 K	0.00311
in isopropanol, 283.15 K	0.000167
in isopropanol, 288.2 K	0.000327
in isopropanol, 293.14 K	0.000576
in isopropanol, 298.15 K	0.000976
in isopropanol, 303.15 K	0.00163
in isopropanol, 308.2 K	0.00258
in isopropanol, 313.2 K	0.00368
in isopropanol, 318.15 K	0.00517
in isopropanol, 323.15 K	0.00677
in isopropyl acetate, 283.17 K	4.68e-05
in isopropyl acetate, 288.15 K	8.53e-05
in isopropyl acetate, 293.14 K	0.000146
in isopropyl acetate, 298.15 K	0.000237
in isopropyl acetate, 303.13 K	0.00037
in isopropyl acetate, 308.15 K	0.000555
in isopropyl acetate, 313.15 K	0.0008
in isopropyl acetate, 318.15 K	0.00111
in isopropyl acetate, 323.15 K	0.00149
in methanol, 283.1 K	0.00221
in methanol, 288.15 K	0.00273
in methanol, 293.24 K	0.00338
in methanol, 298.1 K	0.00415
in methanol, 303.15 K	0.00505
in methanol, 308.2 K	0.00611
in methanol, 313.2 K	0.00732
in methanol, 318.15 K	0.00872
in methanol, 323.2 K	0.0103
in methyl acetate, 283.12 K	0.000417
in methyl acetate, 288.2 K	0.000578
in methyl acetate, 293.17 K	0.000914
in methyl acetate, 298.14 K	0.00136
in methyl acetate, 303.15 K	0.0019
in methyl acetate, 308.15 K	0.00253
in methyl acetate, 313.15 K	0.0032
in methyl acetate, 318.15 K	0.00385
in methyl acetate, 323.15 K	0.00444
in n-butanol, 283.15 K	0.000489
in n-butanol, 288.2 K	0.000737
in n-butanol, 293.17 K	0.00114
in n-butanol, 298.18 K	0.00164
in n-butanol, 303.15 K	0.00224
in n-butanol, 308.2 K	0.00308
in n-butanol, 313.15 K	0.00418
in n-butanol, 318.15 K	0.00561
in n-butanol, 323.15 K	0.00733
in n-butyl acetate, 283.1 K	5.67e-05
in n-butyl acetate, 288.15 K	8.11e-05
in n-butyl acetate, 293.15 K	0.000116
in n-butyl acetate, 298.17 K	0.000165
in n-butyl acetate, 303.15 K	0.000233
in n-butyl acetate, 308.15 K	0.000326
in n-butyl acetate, 313.14 K	0.000456
in n-butyl acetate, 318.15 K	0.000626
in n-butyl acetate, 323.12 K	0.000873
in n-pentanol, 283.14 K	6.94e-05
in n-pentanol, 288.2 K	0.000156
in n-pentanol, 293.15 K	0.000322
in n-pentanol, 298.15 K	0.000606
in n-pentanol, 303.15 K	0.00107
in n-pentanol, 308.14 K	0.00177
in n-pentanol, 313.15 K	0.00273
in n-pentanol, 318.15 K	0.00399
in n-pentanol, 323.15 K	0.00549
in n-propanol, 283.13 K	0.000939
in n-propanol, 288.2 K	0.00127
in n-propanol, 293.15 K	0.00173
in n-propanol, 298.13 K	0.00226
in n-propanol, 303.15 K	0.00295
in n-propanol, 308.15 K	0.00382
in n-propanol, 313.15 K	0.0049
in n-propanol, 318.2 K	0.00624
in n-propanol, 323.15 K	0.00787
in n-propyl acetate, 283.15 K	6.95e-05
in n-propyl acetate, 288.14 K	0.000135
in n-propyl acetate, 293.17 K	0.000242
in n-propyl acetate, 298.2 K	0.000415
in n-propyl acetate, 303.15 K	0.000663
in n-propyl acetate, 308.15 K	0.00102
in n-propyl acetate, 313.15 K	0.0015
in n-propyl acetate, 318.15 K	0.00203
in n-propyl acetate, 323.15 K	0.00275
in water, 283.13 K	1.9e-05
in water, 288.16 K	2.8e-05
in water, 293.15 K	4.81e-05
in water, 298.15 K	7.86e-05
in water, 303.18 K	0.000123
in water, 308.15 K	0.000177
in water, 313.2 K	0.000232
in water, 318.15 K	0.0003
in water, 323.15 K	0.00037
